We go through 14 molecules from patent US20260258048A1, “LACTAM-CONTAINING IMIDAZOPYRIDAZINE IL-17 INHIBITOR COMPOUNDS” (Janssen Pharmaceutica NV, priority 2023, published 2026).

Bounds are passed on as bounds.

Assay [1] deals with IL-17A-induced G-CSF production in human normal keratinocyte (NHK). The experiment in a line: NHK assay: IL-17A-induced G-CSF production in normal human keratinocytes. It counts as cell-based. To be noted: 24 h, IL-17A 5 ng/mL, class of the average IC50 where tested more than once. In a few lines: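 Adult keratinocytes at 3000-4000 cells/well; recombinant human IL-17A pre-incubated 1 h at rt with titrated compound, then added to cells (final 5 ng/mL IL-17A, 0.2% DMSO, 5% FBS) for 24 h at 37 °C. Supernatant G-CSF quantified by HTRF against a standard curve to give IC50; viability checked by CellTiter-Glo versus DMSO.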

Assay [2] concerns the target IL-17A(FLAG-tagged): IL-17RA(His-tagged) (Homo sapiens, UniProt Q16552, K93Q). The assay is described as follows: IL-17A(FLAG-tagged): IL-17RA(His-tagged) binding disruption Eu-HTRF assay. To be noted: class of the average IC50 where tested more than once. The text has this:
IL-17A(FLAG-tagged): IL-17RA(His-tagged) binding disruption Eu-HTRF assay An antibody directed against the FLAG tag of IL-17A (SEQ ID NO: 1) is labeled with the HTRF donor chromophore (Europium-cryptate). IL-17A is present as a dimer that is “locked into” this quaternary structure due to the formation of loop-spanning intramolecular disulfide bridges. The construct of IL-17RA used in the assay excludes the […] portion of the receptor and is fused to a C-terminal 10×His tag (SEQ ID NO:2). An antibody directed against the His tag of the IL-17RA chimera is labeled with the HTRF acceptor chromophore (“D2”). The fluorescence-resonance energy transfer (FRET) depends on the vicinity of the donor chromophore to the acceptor, and interruption of the binding between the IL-17A and IL-17RA causes the reduction/loss of FRET. Therefore, this assay allows to evaluate the compound effect on the binding IL-17A and IL-17RA by monitoring the fluorescence intensity of donor vs acceptor. The assay is run as described below.
40 nl of 2-fold serial diluted compound solution for total 22 dilution points is added into each well of a 1536-well, white, low-volume, non-binding plate (Greiner #782904), then 2 μl of FLAG tagged IL-17A at 2× final concentration (1 μM) in solution of PBS+0.01% Triton-X100 is added to each well. The assay plate is briefly centrifuged then incubated for 1 h at rt. A mixed solution is prepared containing 2×5 nM 10HIS×IL-17RA, 2×2.5 nM Eu-anti-FLAG (CISBIO), 2×5 nM D2-anti-HIS (CISBIO) in PBS+0.01% Triton-X100+200 mM Potassium Fluoride (Sigma 60238) and 2 μl of mix is added to each well of the assay plate. The plate is briefly centrifuged then incubated for 2 h at rt. The HTRF intensities at the wavelength of donor (615 nm) and acceptor (665 nm) are measured using BMG Pherastar. The ratio between intensities at two wavelengths is calculated and plotted against the compound concentration and the data is fitted to a one-site competition model to yield IC50 of the compound.

Chain of UniProt Q16552 (Q16552 with tags, fused parts or gaps K93Q): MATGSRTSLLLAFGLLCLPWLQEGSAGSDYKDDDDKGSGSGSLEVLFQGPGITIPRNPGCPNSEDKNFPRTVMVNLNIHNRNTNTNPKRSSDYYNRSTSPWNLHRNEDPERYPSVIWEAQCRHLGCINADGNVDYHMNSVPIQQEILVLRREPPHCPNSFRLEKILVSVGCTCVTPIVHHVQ

On to `C[C@H](c1cnn2cc([C@@H](NC(=O)c3nonc3C3CC3)C3CCC(F)(F)CC3)nc2c1)[C@@H]1C[C@@H](C(F)(F)F)NC1=O` (relative stereo) [Example 81, 4-Cyclopropyl-N—((S)-(4,4-difluorocyclohexyl)(7-((S*)-1-((3S*,5S)-2-oxo-5-(trifluoromethyl)pyrrolidin-3-yl)ethyl)imidazo[1,2-b]pyridazin-2-yl)methyl)-1,2,5-oxadiazole-3-carboxamide], for which the IC50 in assay [1] (Homo sapiens, Keratinocyte) was < 400 nM; in assay [2], < 400 nM.

As to `C[C@H]1C[C@@H](Cc2cnn3cc([C@@H](NC(=O)c4nonc4C4CC4)C4CCC(F)(F)CC4)nc3c2)C(=O)N1` (relative stereo) [Example 82, 4-Cyclopropyl-N—((S)-(4,4-difluorocyclohexyl)(7-(((3R*,5S*)-5-methyl-2-oxopyrrolidin-3-yl)methyl)imidazo[1,2-b]pyridazin-2-yl)methyl)-1,2,5-oxadiazole-3-carboxamide], the IC50 is > 4000 nM in assay [1] (Homo sapiens, Keratinocyte) and 400 to 4000 nM in assay [2].

As for `C[C@H]1C[C@H](Cc2cnn3cc([C@@H](NC(=O)c4nonc4C4CC4)C4CCC(F)(F)CC4)nc3c2)C(=O)N1` (relative stereo) [Example 83, 4-Cyclopropyl-N—((S)-(4,4-difluorocyclohexyl)(7-(((3S*,5S*)-5-methyl-2-oxopyrrolidin-3-yl)methyl)imidazo[1,2-b]pyridazin-2-yl)methyl)-1,2,5-oxadiazole-3-carboxamide], the IC50 in assay [1] (Homo sapiens, Keratinocyte) was < 400 nM; in assay [2], < 400 nM.

As for `C[C@@H]1C[C@H](Cc2cnn3cc([C@@H](NC(=O)c4nonc4C4CC4)C4CCC(F)(F)CC4)nc3c2)C(=O)N1` (relative stereo) [Example 85, 4-Cyclopropyl-N—((S)-(4,4-difluorocyclohexyl(7-(((3S*,5R*)-5-methyl-2-oxopyrrolidin-3-yl)methyl)imidazo[1,2-b]pyridazin-2-yl)methyl)-1,2,5-oxadiazole-3-carboxamide], the IC50 in assay [1] (Homo sapiens, Keratinocyte) was > 4000 nM; in assay [2], 400 to 4000 nM.

For the molecule `C[C@H]1CNC(=O)[C@H]1Cc1cnn2cc([C@@H](NC(=O)c3nonc3C3CC3)C3CCC(F)(F)CC3)nc2c1` (relative stereo) [Example 86, 4-Cyclopropyl-N—[(S)-(4,4-difluorocyclohexyl)-[7-[[(3S*,4R*)-4-methyl-2-oxo-pyrrolidin-3-yl]methyl]imidazo[1,2-b]pyridazin-2-yl]methyl]-1,2,5-oxadiazole-3-carboxamide], the IC50 was > 4000 nM in assay [1] (Homo sapiens, Keratinocyte) and 400 to 4000 nM in assay [2].

Take `C[C@@H]1CNC(=O)[C@@H]1Cc1cnn2cc([C@@H](NC(=O)c3nonc3C3CC3)C3CCC(F)(F)CC3)nc2c1` (relative stereo) [Example 88, 4-Cyclopropyl-N—[(S)-(4,4-difluorocyclohexyl)-[7-[[(3R*,4S*)-4-methyl-2-oxo-pyrrolidin-3-yl]methyl]imidazo[1,2-b]pyridazin-2-yl]methyl]-1,2,5-oxadiazole-3-carboxamide]: the IC50 in assay [1] (Homo sapiens, Keratinocyte) is > 4000 nM; in assay [2], 400 to 4000 nM.

In the case of `CC[C@@H]1C[C@H](Cc2cnn3cc([C@@H](NC(=O)c4nonc4C4CC4)C4CCC(F)(F)CC4)nc3c2)C(=O)N1` (relative stereo) [Example 89, 4-Cyclopropyl-N—[(S)-(4,4-difluorocyclohexyl)-[7-[[(3S*,5R*)-5-ethyl-2-oxo-pyrrolidin-3-yl]methyl]imidazo[1,2-b]pyridazin-2-yl]methyl]-1,2,5-oxadiazole-3-carboxamide], the IC50 was > 4000 nM in assay [1] (Homo sapiens, Keratinocyte) and < 400 nM in assay [2].

Turning to `CC(C)[C@H]1C[C@H](Cc2cnn3cc([C@@H](NC(=O)c4nonc4C4CC4)C4CCC(F)(F)CC4)nc3c2)C(=O)N1` (relative stereo) [Example 93, 4-Cyclopropyl-N—[(S)-(4,4-difluorocyclohexyl)-[7-[[(3S*,5R*)-5-isopropyl-2-oxo-pyrrolidin-3-yl]methyl]imidazo[1,2-b]pyridazin-2-yl]methyl]-1,2,5-oxadiazole-3-carboxamide], the 50% inhibitory concentration (IC50) lay in the range of 400 to 4000 nM in assay [1] (Homo sapiens, Keratinocyte) and 400 to 4000 nM in assay [2].

For `CC(C)[C@H]1C[C@@H](Cc2cnn3cc([C@@H](NC(=O)c4nonc4C4CC4)C4CCC(F)(F)CC4)nc3c2)C(=O)N1` (relative stereo) [Example 94, 4-Cyclopropyl-N—[(S)-(4,4-difluorocyclohexyl)-[7-[[(3R*,5R*)-5-isopropyl-2-oxo-pyrrolidin-3-yl]methyl]imidazo[1,2-b]pyridazin-2-yl]methyl]-1,2,5-oxadiazole-3-carboxamide], the IC50 is < 400 nM in assay [1] (Homo sapiens, Keratinocyte) and < 400 nM in assay [2].

In the case of `CC(C)[C@@H]1C[C@@H](Cc2cnn3cc([C@@H](NC(=O)c4nonc4C4CC4)C4CCC(F)(F)CC4)nc3c2)C(=O)N1` (relative stereo) [Example 95, 4-Cyclopropyl-N—[(S)-(4,4-difluorocyclohexyl)-[7-[[(3R*,5S*)-5-isopropyl-2-oxo-pyrrolidin-3-yl]methyl]imidazo[1,2-b]pyridazin-2-yl]methyl]-1,2,5-oxadiazole-3-carboxamide], the IC50 in assay [1] (Homo sapiens, Keratinocyte) was > 4000 nM; in assay [2], 400 to 4000 nM.

Regarding `CC(C)[C@@H]1C[C@H](Cc2cnn3cc([C@@H](NC(=O)c4nonc4C4CC4)C4CCC(F)(F)CC4)nc3c2)C(=O)N1` (relative stereo) [Example 96, 4-Cyclopropyl-N—[(S)-(4,4-difluorocyclohexyl)-[7-[[(3S*,5S*)-5-isopropyl-2-oxo-pyrrolidin-3-yl]methyl]imidazo[1,2-b]pyridazin-2-yl]methyl]-1,2,5-oxadiazole-3-carboxamide], the IC50 is > 4000 nM in assay [1] (Homo sapiens, Keratinocyte) and > 4000 nM in assay [2].

As to `O=C(N[C@H](c1cn2ncc(C[C@@H]3C(=O)NC[C@H]3C(F)(F)F)cc2n1)C1CCC(F)(F)CC1)c1nonc1C1CC1` (relative stereo) [Example 100, 4-Cyclopropyl-N—[(S)-(4,4-difluorocyclohexyl)-[7-[[(3S*,4S*)-2-oxo-4-(trifluoromethyl)pyrrolidin-3-yl]methyl]imidazo[1,2-b]pyridazin-2-yl]methyl]-1,2,5-oxadiazole-3-carboxamide], the IC50 in assay [1] (Homo sapiens, Keratinocyte) was > 4000 nM; in assay [2] it was 400 to 4000 nM.

`O=C(N[C@H](c1cn2ncc(C[C@H]3C(=O)NC[C@@H]3C(F)(F)F)cc2n1)C1CCC(F)(F)CC1)c1nonc1C1CC1` (relative stereo) [Example 101, 4-Cyclopropyl-N—[(S)-(4,4-difluorocyclohexyl)-[7-[[(3R*,4R*)-2-oxo-4-(trifluoromethyl)pyrrolidin-3-yl]methyl]imidazo[1,2-b]pyridazin-2-yl]methyl]-1,2,5-oxadiazole-3-carboxamide]: the IC50 in assay [1] (Homo sapiens, Keratinocyte) was 400 to 4000 nM; in assay [2] it was 400 to 4000 nM.

Consider `O=C(N[C@H](c1cn2ncc(CC3CC(F)(F)CNC3=O)cc2n1)C1CCC(F)(F)CC1)c1nonc1C1CC1` (single isomer, unassigned) [Example 1, 4-Cyclopropyl-N—((S)-(7-(((R*)-5,5-difluoro-2-oxopiperidin-3-yl)methyl)imidazo[1,2-b]pyridazin-2-yl)(4,4-difluorocyclohexyl)methyl)-1,2,5-oxadiazole-3-carboxamide], for which the IC50 in assay [1] and in assay [2] was < 400 nM in each case.
